{
  "source": "patent US9198925B2",
  "about": "“Pharmaceutical formulations containing an SGLT2 inhibitor” (AstraZeneca AB, priority 2007, dated 2015)",
  "key": {"healthy subjects [1]": {"test_system": "healthy subjects", "conditions": "single ascending dose study, cited from earlier work"}, "[2]": {"test_system": "treatment naive type II diabetes mellitus patients", "assay": "12-week study of weight loss and glucosuria in patients with type II diabetes", "format": "in vivo, human", "conditions": "for Mean reduction in BMI: absolute change", "description": "Treatment naive type II diabetes mellitus patients, n=389, with inadequate blood glycemic control and low mean glucosuria at baseline were given once-daily oral treatments with dapagliflozin propylene glycol hydrate (2.5, 5, 10, 20, or 50 mgs), metformin XR® (750 mg titrated to 1500 mgs), or placebo over 12-weeks."}, "healthy subjects [3]": {"test_system": "healthy subjects", "conditions": "single ascending dose study", "description": "(§1) Patients with type 2 diabetes were treated with placebo, 5 mg dapagliflozin propylene glycol hydrate, 25 mg dapagliflozin propylene glycol hydrate, or 100 mg dapagliflozin propylene glycol hydrate."}, "[4]": {"test_system": "subjects with type 2 diabetes", "conditions": "14-day multiple dose", "description": "as §1"}, "[5]": {"test_system": "diet-induced obese (DIO) rats", "source_text": "Obesity was induced in male Sprague-Dawley rats (mean baseline weight=220 g) via ad libitum access to 2 diets: normal diet (Harlan Teklad rat chow; 3.5 kcal/gm, 5% vegetable fat) and high-sucrose/high-fat diet (Research Diets D12327; 4.6 kcal/gm, 40% sucrose and 40% vegetable fat). Rats under these conditions typically consume approximately 30 g/day of the high-sucrose/high-fat chow and 2 g/day of the normal Harlan Teklad rat chow.\nDIO rats were sorted into treatment groups based on body weight, total kilocalories consumed, and body composition (via echo MRI). […] Body weight and the weight of both diets were determined daily. Respiratory quotient data were obtained on days 2 and 15 of the study, echo MRI was obtained on day 22, and blood was collected for a fasting clinical chemistry tests on day 27.\nPercent weight changes were calculated as daily weight—day 0 weight×100."}, "[6]": {"test_system": "diet-induced obese (DIO) rats", "conditions": "oral 1, 5 or 10 mg/kg, urine volume x glucose concentration", "procedure": "Obesity was induced in male Sprague-Dawley rats (mean baseline weight=220 g) via ad libitum access to 2 diets: normal diet (Harlan Teklad rat chow; 3.5 kcal/gm, 5% vegetable fat) and high-sucrose/high-fat diet (Research Diets D12327; 4.6 kcal/gm, 40% sucrose and 40% vegetable fat).\nUrine volume and glucose concentration were used to determine total urine glucose loss over 24 hours post dose.\nTotal glucose lost was calculated as volume of urine x glucose concentration."}, "[7]": {"conditions": "metformin XR 750 mg titrated to 1500 mgs, 12 weeks, n = 56"}, "[8]": {"conditions": "2.5 mgs once daily, 12 weeks, n = 59"}, "[9]": {"conditions": "5 mgs once daily, 12 weeks, n = 58"}, "[10]": {"conditions": "10 mgs once daily, 12 weeks, n = 47"}, "[11]": {"conditions": "20 mgs once daily, 12 weeks, n = 59"}, "[12]": {"conditions": "50 mgs once daily, 12 weeks, n = 56"}},
  "note": "Where two headings read alike, the source gives them in different places.",
  "data": [
    {"smiles": "CCOC(=O)OC[C@H]1O[C@@H](Oc2ccccc2Cc2ccc(OC)cc2)[C@H](O)[C@@H](O)[C@@H]1O", "note": "[GSK 869,682]", "values": [
      {"measurement": "amount of glucose excretion/day", "setting": "healthy subjects [1]; 50 mg", "value": "approximately 5 g"},
      {"measurement": "amount of glucose excretion/day", "setting": "healthy subjects [1]; 100 mg", "value": "~6", "unit": "g"},
      {"measurement": "amount of glucose excretion/day", "setting": "healthy subjects [1]; 200 mg", "value": "~12", "unit": "g"},
      {"measurement": "amount of glucose excretion/day", "setting": "healthy subjects [1]; 500 mg", "value": "~16", "unit": "g"}
    ]},
    {"smiles": "CN(C)C(=N)N=C(N)N", "note": "[Metformin, metformin, reference compound]", "values": [
      {"measurement": "Mean reduction in BMI", "setting": "[2]; [7]", "value": "−0.5"},
      {"measurement": "Mean reduction in weight (%)", "setting": "[2]; [7]", "value": "−1.7", "unit": "%"},
      {"measurement": "mean glucosuria at week 12", "setting": "[2]; type II diabetes patients, metformin XR 750 mg titrated to 1500 mgs, week 12", "value": 5.6, "unit": "grams/day"}
    ]},
    {"smiles": "CCOc1ccc(Cc2cc([C@@H]3O[C@H](CO)[C@@H](O)[C@H](O)[C@H]3O)ccc2Cl)cc1.C[C@H](O)CO.O", "note": "[dapagliflozin propylene glycol hydrate]", "values": [
      {"measurement": "amount of glucose excretion/day", "setting": "healthy subjects [3]; 5 mg", "value": "approximately 30 g"},
      {"measurement": "amount of glucose excretion/day", "setting": "healthy subjects [3]; 20 mg", "value": "~55", "unit": "g"},
      {"measurement": "amount of glucose excretion/day", "setting": "healthy subjects [3]; 50 mg", "value": "~60", "unit": "g"},
      {"measurement": "amount of glucose excretion/day", "setting": "healthy subjects [3]; 100 mg", "value": "~70", "unit": "g"},
      {"measurement": "24-hour urine glucose excretion compared to placebo", "setting": "[4]; 5 mg", "value": "significantly higher"},
      {"measurement": "24-hour urine glucose excretion compared to placebo", "setting": "[4]; 25 mg", "value": "significantly higher"},
      {"measurement": "24-hour urine glucose excretion compared to placebo", "setting": "[4]; 100 mg", "value": "significantly higher"},
      {"measurement": "Mean reduction in weight (%)", "setting": "[2]; [8]", "value": "−2.7", "unit": "%"},
      {"measurement": "Mean reduction in weight (%)", "setting": "[2]; [9]", "value": "−2.5", "unit": "%"},
      {"measurement": "Mean reduction in weight (%)", "setting": "[2]; [10]", "value": "−2.7", "unit": "%"},
      {"measurement": "Mean reduction in weight (%)", "setting": "[2]; [11]", "value": "−3.4", "unit": "%"},
      {"measurement": "Mean reduction in weight (%)", "setting": "[2]; [12]", "value": "−3.4", "unit": "%"},
      {"measurement": "Mean reduction in BMI", "setting": "[2]; [8]", "value": "−0.9"},
      {"measurement": "Mean reduction in BMI", "setting": "[2]; [9]", "value": "−0.8"},
      {"measurement": "Mean reduction in BMI", "setting": "[2]; [10]", "value": "−0.8"},
      {"measurement": "Mean reduction in BMI", "setting": "[2]; [11]", "value": "−1.0"},
      {"measurement": "Mean reduction in BMI", "setting": "[2]; [12]", "value": "−1.1"},
      {"measurement": "proportion of patients who achieved a 5% weight reduction, versus placebo", "setting": "[2]; each dose group (2.5, 5, 10, 20, 50 mgs), 12 weeks", "value": "higher proportion"},
      {"measurement": "body weight loss versus vehicle", "setting": "[5]; oral 0.5, 1 or 5 mpk, administered daily over 25 days, p<0.05 versus vehicle", "value": "significant weight loss"},
      {"measurement": "body weight loss when compound-induced overeating was prevented (pair fed to vehicle group)", "setting": "[5]; pair fed subgroup, compared with ad libitum treated rats", "value": "the weight loss was greater"},
      {"measurement": "total amount of glucose lost in urine over 24 hours post dose", "setting": "[6]", "value": "significantly increased with increasing doses"}
    ]}
  ]
}
